Experiment [1] has as its system puccinia recondite-causing germs. Briefly: Puccinia Recondite control effect test (spray on wheat). The format is in vivo.
In a further experiment the test system is Septoria tritici. As to conditions: in vivo.
Experiment [2] has as its system puccinia recondite-causing germs. The settings on record: in vivo.
Another experiment deals with gray mold fungi. Briefly: Cucumber gray mold disease control effect test. The format is in vivo, Botrytis cinerea. As to conditions: 100 g/ha; spray on cotyledon cucumber; 4 days after the inoculation. How it is done:
The compounds of the present invention were adjusted to a predetermined concentration ([…]) according to Test Example 2 in a cotyledon cucumber (variety: Sagami Hanjiro Cucumber) cultivated using a rectangular plastic pot (6 cm×6 cm), and sprayed at a ratio of 1,000 L/ha. After air-drying the spray leaves, a paper disc (8 mm in diameter) impregnated with the spore solution of gray mold fungi was placed and kept at 20° C. under high humidity conditions. On 4 days after the inoculation, a morbidity of cucumber gray mold disease was examined, and a control value was calculated by the following Equation. Control value (%)=(1−average morbidity of sprayed area/average morbidity of unsprayed area)×100
In addition, the morbidity was determined based on the following Table 12.

Where [3] appears, read: 3.13 g/ha, spray on second leaf stage wheat, 14 days after the inoculation.

The structures appear in SMILES notation.

Experimental for Septoria tritici: The severity of flag leaf and second leaf was evaluated after 50 days lapsed after the second spraying. The control value was calculated from the average severity of the flag leaf and the second leaf. Control value (%)=(1−average severity of treated area/average severity of untreated area)×100

In turn, `COC(=O)C(O)(Cn1cncn1)c1ccc(Oc2cccc(Cl)c2)cc1Cl` (stereo not shown) [Compound I-20, methyl 2-(2-chloro-4-(3-chlorophenoxy)phenyl)-2-hydroxy-3-(1H-1,2,4-triazol-1-yl)propanoate] displayed a control value in experiment [1] (setting [3]) of 80%.
Take `CC(O)(Cn1cncn1)c1ccc(Oc2ccc(Cl)cc2)cc1C(F)(F)F` (stereo not shown): the control value in the experiment on Septoria tritici is 88%; in experiment [1] (in vivo), 20%. In addition, the “Control value (%)” value in experiment [2] came to 86%.
With `COC(=O)C(O)(Cn1cncn1)c1ccc(Oc2ccc(Cl)cc2)cc1Cl` (stereo not shown) [Compound I-1, methyl 2-hydroxy-2-(2-chloro-4-(4-chlorophenoxy)phenyl)-3-(1H-1,2,4-triazol-1-yl)propanoate], the control value in experiment [1] (setting [3]) was 73%. For the same compound, the “Control value (%)” value in experiment [2] is 99%.
With `COC(=O)C(O)(Cn1cncn1)c1ccc(Oc2ccccc2)cc1` (stereo not shown) [control compound B, methyl 2-hydroxy-2-(4-phenoxyphenyl)-3-(1H-1,2,4-triazol-1-yl)propanoate], in the experiment on gray mold fungi, the control value turned out to be 0%.

Source of the values: patent US10945434B2, “Azole derivative, intermediate compound, method for producing azole derivative, agricultural or horticultural chemical agent, and protective agent for industrial material” (priority 2017, dated 2021).
